According to PubChem BioAssay AID179 (DTP/NCI, 2004):
Where “and” joins values, the source holds several entries; their conditions need not be identical. Equal entries are not always repeated. Calls of active or inactive are those of the source.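 The calls were made as follows: active = compounds giving half or more protection of infected cells from virus-caused growth loss, again on retest; inactive = the rest.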

Test system: CEM cells HIV-1 protection, formazan growth assay
Test: NCI AIDS Antiviral Assay
Settings: for IC50: measured here: growth of uninfected CEM cells
Procedure, shortened: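 Five concentrations of each compound were applied to infected and uninfected human CEM cells. Protection from HIV-1 was judged from growth measured with a soluble formazan assay.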

SMILES | EC50 [µM] | IC50 | outcome
CC(C)(C)c1ccc(CN2CCN(C(c3ccccc3)c3ccc(Cl)cc3)CC2)cc1 (stereo not drawn) | > 200 | 115 µM | 
CC1=Nc2ccccc2NC(=O)C1 | > 200 | > 200 µM | 
Nc1cccc(S(=O)(=O)N(CC(=O)O)c2ccccc2)c1 |  |  | inactive
O=C1C(=O)N(C(=O)c2ccc(Cl)c(Cl)c2)c2ccccc21 |  |  | inactive
OCC1OC(n2cnc3c(=S)nc[nH]c32)C(O)C1O (stereo not drawn) | > 871 | 617 µM | 
COc1cc(N)c2c(c1)SC(c1ccccc1)C(=O)N2 (stereo not drawn) | > 200 | 120 µM | 
Nc1nc2c(ncn2Cc2ccccc2CCO)c(=O)[nH]1 | > 47.9 | > 47.9 µM | 
CN1CCCC(CNC2C3CC4CC(C3)CC2C4)C1 (stereo not drawn) | > 138 | > 138 µM | 
O=C(C=Nc1ccccc1C(=O)[O-])c1cccs1.O=C(C=Nc1ccccc1C(=O)[O-])c1cccs1.[Co+2] |  |  | inactive
Cc1cccc(C)c1NC(=S)/N=C/C1=C(O)c2ccccc2C1=O | > 200 | 15.8 µM | 
CO[C@H]1C[C@](C)(O)Cc2cc3c(c(O)c21)C(=O)c1c(O)cc2c(c1C3=O)O[C@@H]1O[C@@]2(C)[C@H](O)[C@@H](N(C)C)[C@@H]1O | > 6.92 | 0.0468 µM | 
O=C(/C=C/c1ccccc1)c1ccc(Cl)cc1Cl | > 2.69 | > 2.69 µM | 
COc1ccc2c(c1)c1c(n2CCN(C)C)-c2ccccc2CC1 | > 200 | 14.8 µM | 
Nc1ccc2c(c1)C(=P(c1ccccc1)(c1ccccc1)c1ccccc1)c1ccccc1-2 | > 200 | 10.7 µM | 
FC(F)(F)C1(c2ccccc2)SCc2nc3ccccc3n21 (stereo not drawn) | 77.6 | 105 µM | 
Brc1ccc(C=NC23CC4CC(CC(C4)C2)C3)cc1 | > 56.2 | > 56.2 µM | 
C[C@]12CCCC(=O)C1C[C@H](C(=O)O)CC2 (stereo partly drawn) |  |  | inactive
ON(CCc1ccccn1)CCc1ccccn1 | > 200 | > 200 µM | 
C=CCOCn1cnc2c(=O)[nH]c(N)nc21 | > 200 | > 200 µM | 
C1CN2CN1CN1CCN(C1)C2 | > 200 | 22.9 µM | 
C=CCOC1OC(CO[Si](C)(C)C(C)(C)C)C(OCc2ccccc2)C(OCc2ccccc2)C1OCc1ccccc1 (stereo not drawn) |  |  | inactive
COc1ccc2c(c1)[n+](=O)c(C(=O)C/C(=N\NC(=O)C[N+](C)(C)C)C(=O)Nc1cc(Cl)ccc1Cl)c(C)n2O | > 1.23 | > 1.23 µM | 

SMILES | EC50 [µM] | IC50 | outcome
COc1ccc(N=C2C(=Nc3ccc(OC)cc3)N(S(=O)(=O)c3ccccc3)C(=S)N2c2ccc(OC)cc2)cc1 | > 200 | > 200 µM | 
CN(C)CCn1nc(N)c2nc3cc(C(F)(F)F)ccc3nc21 | > 100 | 63.1 µM | 
O=C(O)c1ccccc1C(=O)OC1CC2CC1C1OCC21 (stereo not drawn) | > 309 | > 309 µM | 
Nc1c(Cl)cccc1-c1c[nH]cc1Cl | > 794 | > 100 µM | 
CC1CN1c1c(C(=O)/C=C/c2ccc(Cl)cc2)c(-c2ccccc2)nn(C)c1=O (stereo not drawn) | > 8.91 | > 8.91 µM | 
N#Cc1c(-c2ccc(F)cc2)c(-c2ccc(F)cc2)nn(CCO)c1=O | > 141 | 1.48 µM | 
Cc1ccc(N=c2oc3c(ccc4ccccc43)nc2Nc2ccc(C)cc2)cc1 | > 200 | > 200 µM | 
N#CC(NNC(=O)c1ccccc1O)c1ccccc1 (stereo not drawn) | > 9.33 | 0.339 µM | 
CCOC(=O)[C@@H]1ON2O[C@H](OC3CCCC3(c3ccccc3)c3ccccc3)C[C@H]3OC(=O)[C@@H]1C32 (stereo partly drawn) | > 200 | 32.4 µM | 
O=c1c(Cl)c(Cl)cnn1CCc1ccncc1 | > 132 | 7.08 µM | 
NC(=O)c1nnsc1-c1ccco1 | > 200 | > 200 µM | 
CC1=NNC(=O)C1C(C/C(=N/O)c1c[nH]c2ccccc12)C(=O)O (stereo not drawn) | > 100 | > 100 µM | 
c1ccc(C2=C(c3ccccc3)P(c3ccccc3)C2)cc1 (stereo not drawn) |  |  | inactive
OCC1OC(Oc2cc(O)cc(CCc3ccc(O)c(O)c3)c2)C(O)C(O)C1O (stereo not drawn) | > 617 | 41.7 µM | 
Cc1ccsc1/C=N/NC1=NCCN1 | > 200 | > 100 µM | 
Cc1ccnc(NS(=O)(=O)c2ccc(NC(=O)c3ccccc3SC(=O)CCCC[n+]3ccccc3)cc2)n1 | 15.1 | 102 µM | 
Oc1ccc(Br)cc1C=Nc1c(NC2CCCCC2)oc2ccc(Br)cc12 |  |  | inactive
C/C(=C1/N=C(c2cc([N+](=O)[O-])ccc2Cl)N(c2cccc(C)c2)C1=O)c1cc2ccccc2oc1=O | > 7.59 | > 7.59 µM | 
COc1cc(/C=C2\CCc3ccccc3C2=O)cc(OC)c1OC | > 30.9 | 9.77 µM | 
Cn1cnc([N+](=O)[O-])c1Sc1ccccc1N | > 525 | 61.7 µM | 
COc1cc(C(c2cccc3ccccc23)N2C(=O)CCC2C(=O)NCc2ccccc2)cc(OC)c1OC (stereo not drawn) | > 200 | > 200 µM | 
CCOC(=O)c1c(-c2ccc(OC)cc2)ccn1C | > 200 | 28.8 µM | 

SMILES | EC50 [µM] | IC50 | outcome
Cc1c2ccccc2nc(CN2CCCCC2)[n+]1[O-] | > 200 | > 200 µM | 
CCOC(=O)NC1=NCC(C)S1 (stereo not drawn) |  |  | inactive
COC(=O)C1CC2C(=O)N(c3ccccc3)C(=O)C2c2c1n(C)c1ccccc21 (stereo not drawn) | > 32.4 | > 32.4 µM | 
NCCN.O=C([O-])[O-].O=C([O-])[O-].[Co+3].[K+] | > 646 | 295 µM and 339 µM | 
COC(=O)Nc1nc2ccccc2c(=O)[nH]1 | > 200 | > 200 µM | 
CCc1c(O)n(Cc2ccccc2)c(=S)n(Cc2nc3ccccc3[nH]2)c1=O | > 200 | > 200 µM | 
CCN(CC)CCOC(=O)c1cc2ccccc2n1Cc1ccccc1 | > 100 | > 100 µM | 
COc1cc(/C=C2/SC(c3ccccc3)N(c3ccccc3Cl)C2=O)cc(OC)c1OC (stereo not drawn) | > 200 | 43.7 µM | 
CCOC(=O)c1nc2ccccc2nc1Nc1ccc(OC)c(OC)c1 | > 200 | > 200 µM | 
Cc1cccc(-n2nc3c(=O)n(C)c(=O)n(C)c3nc2=O)c1 | > 200 | > 200 µM | 
COC(=O)c1cc(=O)n2c(c1C(C)=O)N(C)CC2 | > 427 | > 427 µM | 
COc1cccc(/C=N/NC(=O)CN(C)C)c1O | > 200 | 51.3 µM | 
CCc1cc(CCC(=O)Nc2ccccc2[N+](=O)[O-])[nH]c(=S)n1 | > 759 | > 759 µM | 
CCCCc1ccc(Nc2nc(Cl)c3c(ncn3C3CC(Oc4ccc(C)cc4)C(COc4ccc(C)cc4)O3)n2)cc1 (stereo not drawn) | > 200 | > 200 µM | 
C/C=C(\CCCCN1C(=O)CCC1O)[Si](C)(C)C (stereo not drawn) |  |  | inactive
COc1ccc(NC(=O)CC(=O)N/N=C(\C)c2cc3ccccc3oc2=O)cc1 | > 200 | 102 µM | 
COc1cc(C(c2cc(OC)c(OC)c(OC)c2)N2C(=O)CCC2C(=O)O)cc(OC)c1OC (stereo not drawn) | > 200 | > 200 µM | 
CCCCNC(=S)/N=C/c1c(O)c2ccccc2oc1=O | > 200 | 182 µM | 
CCc1cccc(CC)c1NC(=O)C1=CNC(C)=C(C(=O)Nc2c(CC)cccc2CC)C1c1ccc(O)c(OC)c1 (stereo not drawn) | > 63.1 | 49 µM | 
CCCCC(C(=O)C(=O)NC1C2CC3CC(C2)CC1C3)C(=O)C(C)C (stereo not drawn) | > 74.1 | > 74.1 µM | 
CC1(C)OP(=O)(c2ccccc2)C=C1Br (stereo not drawn) | > 200 | > 200 µM | 
OC1=CN=COc2ccccc21 | > 813 | 479 µM | 
